Measurements reported in patent US10703733B2, “MCL-1 inhibitors” (Gilead Sciences, Inc., priority 2018, dated 2020).
Read-outs that look alike come from different tables or passages of the source.

Assays:
[1] = molecular target: MCL-1/Bim interaction (recombinant human MCL-1 protein, residues 171-327; biotinylated human Bim peptide, residues 51-76) (Homo sapiens (Human), UniProt Q07820); test: MCL-1/Bim Binding AlphaLISA Assay; settings: 0.0625 nM 6xHis-Mcl-1 (171-327), 0.0625 nM biotinylated-Bim peptide
Sequence of MCL-1/Bim interaction (recombinant human MCL-1 protein, residues 171-327; biotinylated human Bim peptide, residues 51-76) (Q07820 171-327): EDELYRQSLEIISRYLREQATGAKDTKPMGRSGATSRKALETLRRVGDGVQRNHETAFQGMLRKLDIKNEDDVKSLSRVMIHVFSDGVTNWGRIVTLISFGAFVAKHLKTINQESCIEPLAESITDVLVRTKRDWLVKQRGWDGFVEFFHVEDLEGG
Method: MCL-1/Bim Binding AlphaLISA Assay.
Inhibition of the MCL-1 and Bim interaction was measured in the following AlphaLISA assay.
Recombinant human MCL-1 protein (C-terminal 6×His Tagged Mcl-1 containing residues 171-327) was generated at Gilead Sciences, Inc. (Foster City, Calif.). A biotinylated peptide derived from human Bim (residues 51-76) was purchased from CPC Scientific (Sunnyvale, Calif.). (CPC 834113). AlphaLISA anti-6His-acceptor beads (AL128R), AlphaScreen Streptavidin donor beads (6760002B), and Proxiplate-384 Plus (6008289) were purchased from PerkinElmer.
The AlphaLISA assay was performed in a 384-well Proxiplate in a total volume of […]. The reaction mixture contained 0.0625 nM 6×His-Mcl-1 (171-327), 0.0625 nM biotinylated-Bim peptide, 10 μg/mL AlphaLISA anti-6×His-AlphaLISA acceptor beads, […] AlphaScreen streptavidin donor beads, and serially diluted test compounds in the binding buffer (20 mM Hepes, pH 7.5 (Teknova H1035); 150 mM NaCl (Promega V4221); 0.002% Brij 35 (Thermo Scientific 20150); 1 mM Dithiothreitol (DTT) Solution (Affymetrix 70726); 0.01% BSA (BioLabs B9000S)). 1,000×test compounds were pre-spotted onto 384-well Proxiplate (Labcyte Echo) by Echo 555 Liquid Handler (Labcyte Inc., San Jose, Calif.) followed by incubation of 5 μl Mcl-1(171-327) for 1 hour. Then 5 μL Bim (51-76) was added and incubated for 2 hours. Five μL AlphaLISA anti-6His-AlphaLISA acceptor beads were then added for 1 hour followed by addition of 5 μL AlphaScreen streptavidin donor beads for 1 hour. The reaction plates were then read on an Envision multimode reader (PerkinElmer) using AlphaScreen settings. […] Percent inhibition was calculated as shown below: % Inhibition=100%*(Well−Neg)/(Pos−Neg) Neg: negative control, DMSO Pos: positive control, no Mcl-1 protein, no biotinylated-Bim peptide

SKBR3 cells = test: SKBR3 Cell Viability Assay (CellTiter Glo); assay type: cell-based; settings: CellTiter Glo luminescence, read-out: MCL-1 CV SKBR3 EC50
Method: SKBR3 Cell Viability Assay Materials
SKBR3 Cells (ATCC HTB-30) were obtained from ATCC (Manassas, Va.) and cultured in McCoy 5A's medium (ATCC 30-2007)+10% fetal bovine serum (SH30071.03, HyClone, Pittsburgh, Pa.) plus 1× Penicillin-Streptomycin L-glutamine (Corning 30-009-C1, Corning, N.Y.)).
The cell viability assay was conducted in a 384-well tissue culture plate (Grenier 781086, Monroe, N.C.) in a total volume of 70 μL. Test compounds were prepared in 1,000×, serially diluted, and pre-spotted into 384-well tissue culture plate by Echo 555 Liquid Handler (Labcyte Inc., San Jose, Calif.). Seventy μl of 6,000 SKBR3 cells were dispensed into each well of the plate and incubated at 37° C. with 5% CO2 for 72 hours. At the end of incubation, 2× CellTiter Glo (CTG) reagents (1 part buffer with 2 parts substrate) (Promega, Madison, Wis.) were prepared, and the plate and the reagent were equilibrated to room temperature for 30 minutes. CTG reagent was added to each plate by Biomek FX at 20 μL/well with 5 times pipetting and mixing to induce cell lysis. Luminescence was read by Envision multimode reader (PerkinElmer). […] Percent inhibition was calculated as followed: % Inhibition=100%*(Well−Neg)/(Pos−Neg) Neg, negative control, DMSO Pos, positive control, 10 μM Puromycin

Row | SMILES | IC50 [1] [nM] | EC50 (SKBR3 cells; Homo sapiens, SK-BR-3, 72 h) [nM] | EC50 (SKBR3 cells; 72 hours) [nM]
1 | CO[C@H]1/C=C/CCC[S@@](=O)(NC(=O)Cc2cn3ccccc3n2)=NC(=O)c2ccc3c(c2)N(C[C@@H]2CC[C@H]21)C[C@@]1(CCCc2cc(Cl)ccc21)CO3 [Example 86] | 1.8 | 4910 | –
2 | CO[C@H]1/C=C/CCC[S@@](=O)(NC(=O)CCc2nnc(C)o2)=NC(=O)c2ccc3c(c2)N(C[C@@H]2CC[C@H]21)C[C@@]1(CCCc2cc(Cl)ccc21)CO3 [Example 60] | 0.2 | 1090 | –
3 | CO[C@H]1/C=C/CCC[S@@](=O)(NC(=O)CCS(C)(=O)=O)=NC(=O)c2ccc3c(c2)N(C[C@@H]2CC[C@H]21)C[C@@]1(CCCc2cc(Cl)ccc21)CO3 [Example 28] | 0.2 | 8410 | –
4 | CO[C@H]1/C=C/CCC[S@@](=O)(NC(=O)CCc2ncsc2C)=NC(=O)c2ccc3c(c2)N(C[C@@H]2CC[C@H]21)C[C@@]1(CCCc2cc(Cl)ccc21)CO3 [Example 101] | 1.4 | 2590 | –
5 | CO[C@H]1/C=C/C[C@H](C)C[S@@](=O)(NC(=O)N[C@H]2C[C@@](C)(O)C2)=NC(=O)c2ccc3c(c2)N(C[C@@H]2CC[C@H]21)C[C@@]1(CCCc2cc(Cl)ccc21)CO3 [Example 186] | 0.066 | 168 | –
6 | CC[C@@H]1CC1NC(=O)N[S@@]1(=O)=NC(=O)c2ccc3c(c2)N(C[C@@H]2CC[C@H]2[C@@H](OC)/C=C/C[C@H](C)C1)C[C@@]1(CCCc2cc(Cl)ccc21)CO3 (stereo partly drawn) [Example 199] | 0.117 | 58.2 | –
7 | CO[C@H]1/C=C/C[C@H](C)C[S@@](=O)(NC(=O)NC2CC2CC(F)F)=NC(=O)c2ccc3c(c2)N(C[C@@H]2CC[C@H]21)C[C@@]1(CCCc2cc(Cl)ccc21)CO3 (single isomer, unassigned) [Example 282] | 0.086 | – | 28.7
8 | CO[C@H]1/C=C/C[C@H](C)C[S@@](=O)(NC(=O)N[C@H]2C[C@@](O)(C(F)(F)F)C2)=NC(=O)c2ccc3c(c2)N(C[C@@H]2CC[C@H]21)C[C@@]1(CCCc2cc(Cl)ccc21)CO3 [Example 453] | 0.092 | 96.7 | –
9 | CO[C@H]1/C=C/C[C@H](C)C[S@@](=O)(NC(=O)N2CC3(COCCO3)C2)=NC(=O)c2ccc3c(c2)N(C[C@@H]2CC[C@H]21)C[C@@]1(CCCc2cc(Cl)ccc21)CO3 [Example 248] | 0.042 | 55.3 | –
10 | COc1nn(C)cc1C(=O)N[S@@]1(=O)=NC(=O)c2ccc3c(c2)N(C[C@@H]2CC[C@H]2[C@@H](OC)/C=C/[C@H](Oc2cnccn2)[C@H](C)C1)C[C@@]1(CCCc2cc(Cl)ccc21)CO3 [Example 288] | 0.144 | 170 | –
11 | CCC(=O)N[S@@]1(=O)=NC(=O)c2ccc3c(c2)N(C[C@@H]2CC[C@H]2[C@@H](OCCN2CCN(C)CC2)/C=C/CCC1)C[C@@]1(CCCc2cc(Cl)ccc21)CO3 [Example 68] | 46.9 | 6300 | –
12 | CO[C@H]1/C=C/C[C@H](C)C[S@@](=O)(NC(=O)NC2CC2)=NC(=O)c2ccc3c(c2)N(C[C@@H]2CC[C@H]21)C[C@@]1(CCCc2cc(Cl)ccc21)CO3 [Example 144] | 0.05 | 50.8 | –
13 | CO[C@H]1/C=C/CCC[S@@](=O)(NC(=O)CCc2ccco2)=NC(=O)c2ccc3c(c2)N(C[C@@H]2CC[C@H]21)C[C@@]1(CCCc2cc(Cl)ccc21)CO3 [Example 88] | 1.5 | 2570 | –
14 | C[C@H]1C/C=C/[C@H](O)[C@@H]2CC[C@H]2CN2C[C@@]3(CCCc4cc(Cl)ccc43)COc3ccc(cc32)C(=O)N=[S@](=O)(NC(=O)N[C@H]2C[C@@H]2C(F)F)C1 [Example 321] | 0.037 | 47.1 | –
15 | CO[C@H]1/C=C/C[C@H](C)C[S@@](=O)(NC(=O)NC2C[C@H]2C(F)F)=NC(=O)c2ccc3c(c2)N(C[C@@H]2CC[C@H]21)C[C@@]1(CCCc2cc(Cl)ccc21)CO3 (stereo partly drawn) [Example 207] | 0.162 | 44 | –
16 | CO[C@H]1/C=C/C[C@H](C)C[S@@](=O)(NC(=O)N[C@H]2CCOC2)=NC(=O)c2ccc3c(c2)N(C[C@@H]2CC[C@H]21)C[C@@]1(CCCc2cc(Cl)ccc21)CO3 [Example 112] | 0.047 | 73.2 | –
17 | COc1nn(C)cc1C(=O)N[S@@]1(=O)=NC(=O)c2ccc3c(c2)N(C[C@@H]2CC[C@H]2[C@@H](OC)/C=C/[C@H](OCc2ccccn2)[C@H](C)C1)C[C@@]1(CCCc2cc(Cl)ccc21)CO3 [Example 402] | 0.098 | 90.2 | –
18 | CCn1ccc(CCC(=O)N[S@@]2(=O)=NC(=O)c3ccc4c(c3)N(C[C@@H]3CC[C@H]3[C@@H](OC)/C=C/C[C@H](C)[C@H]2C)C[C@@]2(CCCc3cc(Cl)ccc32)CO4)n1 [Example 408] | 0.054 | 241 | –
19 | CO[C@H]1/C=C/C[C@H](C)C[S@@](=O)(NC(=O)N2CCC(OC(F)F)CC2)=NC(=O)c2ccc3c(c2)N(C[C@@H]2CC[C@H]21)C[C@@]1(CCCc2cc(Cl)ccc21)CO3 [Example 330] | 0.03 | 56.4 | –
20 | CO[C@H]1/C=C/C[C@H](C)C[S@@](=O)(NC(=O)c2cc(C)cs2)=NC(=O)c2ccc3c(c2)N(C[C@@H]2CC[C@H]21)C[C@@]1(CCCc2cc(Cl)ccc21)CO3 [Example 434] | 0.446 | 403 | –
21 | CO[C@H]1/C=C/C[C@H](C)C[S@@](=O)(NC(=O)c2cc3n(c2)CCc2c-3cnn2C)=NC(=O)c2ccc3c(c2)N(C[C@@H]2CC[C@H]21)C[C@@]1(CCCc2cc(Cl)ccc21)CO3 [Example 208] | 0.136 | 45 | –
22 | COC(=O)c1cc(C(=O)N[S@@]2(=O)=NC(=O)c3ccc4c(c3)N(C[C@@H]3CC[C@H]3[C@@H](OC)/C=C/C[C@H](C)C2)C[C@@]2(CCCc3cc(Cl)ccc32)CO4)cn1C [Example 358] | 0.114 | 95.1 | –
23 | CO[C@H]1/C=C/C[C@H](C)C[S@@](=O)(NC(=O)NC23CC(OC)(C2)C3)=NC(=O)c2ccc3c(c2)N(C[C@@H]2CC[C@H]21)C[C@@]1(CCCc2cc(Cl)ccc21)CO3 [Example 361] | 0.055 | 44 | –
24 | CO[C@H]1/C=C/CCC[S@@](=O)(NC(=O)OCc2ccnn2C)=NC(=O)c2ccc3c(c2)N(C[C@@H]2CC[C@H]21)C[C@@]1(CCCc2cc(Cl)ccc21)CO3 [Example 78] | 0.8 | 4070 | –
25 | C[C@@H]1[C@@H](C)C/C=C/[C@H](O)[C@@H]2CC[C@H]2CN2C[C@@]3(CCCc4cc(Cl)ccc43)COc3ccc(cc32)C(=O)N=[S@]1(=O)NC(=O)c1cc2n(c1)C[C@H](CO)OC2 [Example 329] | 0.087 | 57 | –
26 | COC1CCN(C(=O)N[S@@]2(=O)=NC(=O)c3ccc4c(c3)N(C[C@@H]3CC[C@H]3[C@@H](OC)/C=C/C[C@H](C)C2)C[C@@]2(CCCc3cc(Cl)ccc32)CO4)CC1 [Example 320] | 0.035 | 36.6 | –
27 | CO[C@H]1/C=C/C[C@H](C)C[S@@](=O)(NC(=O)c2cnn(C(F)F)c2)=NC(=O)c2ccc3c(c2)N(C[C@@H]2CC[C@H]21)C[C@@]1(CCCc2cc(Cl)ccc21)CO3 [Example 119] | 0.145 | 93.8 | –
